Numbered stars: 1 amine (or outer) side, 2 acyl side, 3 side chain; on linkers, the order of the positions; unused ones are H or OH. Bridge positions count the residues as written; N and C are the ends. Square brackets hold non-standard residues; d marks the D form. Peptide text beside a SMILES is read from it. ξ: configuration not given here. ξαMeNle(6-ylidene) = CC(CCCC=[*:3])(N[*:1])C(=O)[*:2]; Nle = CCCC[C@H](N)C(=O)O
Columns and labels:
[1] = tested on: TCF regulatory sequences (7×TdG) in Colo320 cells; assay: dGFP reporter under TCF regulatory sequences (7×TdG); type: cell-based
Source text: A lentiviral reporter vector containing seven TCF/LEF-1 binding motifs and a minimal promoter driving destabilized GFP expression (7×TdG) was derived from the lentiviral vector TOP-dGFP, which contains three TCF/LEF-1 binding motifs (Sukhdeo, K. et al. Proc Natl Acad Sci USA 104, 7516-21 (2007)). Two synthetic complementary oligonucleotides (IDT-DNA) with four TCF/LEF-1 binding motifs (GATCAAAGG) were designed to generate compatible overhanging ends for annealing to an Xba1 restriction site. The oligonucleotides were annealed by heating to 95° C. and slow cooling to room temperature, followed by ligating into the Xba1-linearized TOP-dGFP vector, yielding 7×TdG. For construction of the control vector carrying seven FOP-sites (7×FdG), the 7×TOP cassette was removed from the 7×TdG vector by restriction digesting with Xma1 and Age1. A synthetic cassette carrying seven FOP sites (GGCCAAAGG) but otherwise identical to the removed 7×TOP cassette was inserted, yielding 7×FdG. BCL9 shRNA and control shRNA lentiviral vectors were generated as reported (Sampietro, J. et al. Mol Cell 24, 293-300 (2006)). See results in FIG. 10, FIG. 11B. […]
Colo320 cells were subjected to infection for 72 h with either 7×TdG or 7×FdG lentivirus, and the transduced and control non-transduced cells were trypsinized, washed, and then analyzed on a FACSaria flow sorter. […]

[2] = tested on: GFP-positive INA-6 cells in human bone chips of SCID-hu mice; assay: SCID-hu murine model of human MM; type: in vivo; details: for shuIL-6R serum levels: 5 mg/kg local injection every other day; for tumor cell invasion outside the bone chip: histologic analysis
Method: In a second in vivo model, the impact of SAH-BCL9B treatment on the growth of INA-6 MM cells within a human bone graft implanted in the flank of SCID-hu mice was examined (Tassone, P. et al. Blood 106, 713-6 (2005)). GFP-labeled INA-6 cells (5×10^6), which express both BCL9 and β-catenin and are suppressed by SAH-BCL9B in vitro were injected into bone grafts four weeks after implantation. Two days later, cohorts of mice (n=5) were treated by local injection with vehicle (2.5% DMSO in D5W), SAH-BCL9B, or SAH-BCL9B(R359E) peptides (5 mg/kg) for a total of 10 doses administered every other day. To monitor tumor burden, the serum level of soluble human interleukin-6 receptor (shuIL-6R) was measured, which is first detectable 3-4 weeks after INA-6 tumor engraftment. […] Mice were sacrificed 33 days after INA-6 cell injection and evaluated for MM tumor burden by fluorescence imaging, histologic analysis, and anti-CD34 staining. […] Similar to the CRC model, local angiogenesis was suppressed in SAH-BCL9B-treated SCID-hu mice, as monitored by anti-CD34 staining and blood vessel quantitation (FIG. 4I).
For the SCID-hu murine model of human MM, human fetal bone grafts measuring 1.5×0.5 cm were subcutaneously implanted into eight week old male CB-17 SCID mice (Taconic) as previously described (Tassone, P. et al. Blood 106, 713-6 (2005)). Four weeks after bone implantation, 5×10^6 GFP-positive INA-6 MM cells were injected directly into each bone implant. Two days later, mice were treated with 100 μl injections of vehicle (2.5% DMSO in D5W) or SAH-BCL9 peptides (5 mg/kg) instilled adjacent to the bone chips on alternate days for a total of 10 doses. Mouse sera were serially monitored for shuIL-6R levels by ELISA (R&D Systems). Thirty-three days after tumor cell injection, the mice were sacrificed and analyzed for tumor burden by fluorescence imaging and histologic analysis of the bone grafts. See results in FIG. 4A-FIG. 4I. In addition, TUNEL staining was performed on samples obtained from the mice. […] See results in FIG. 22 and FIG. 23. All animal experiments were performed in accordance with approved protocols of the Dana-Farber Cancer Institute Animal Care and Use Committee.

Which results are given for CCCC[C@H](NC(=O)[C@H](CCCNC(=N)N)NC(=O)[C@H](CCC(N)=O)NC(=O)[C@@H](NC(=O)C1(C)CCCC=CCCCC(C)(NC(=O)[C@H](CC(C)C)NC(=O)[C@H](CO)NC(=O)[C@H](CCCNC(=N)N)NC(=O)[C@H](CCC(=O)O)NC(=O)[C@H](CCCNC(=N)N)NC(=O)[C@H](Cc2c[nH]cn2)NC(=O)[C@H](CCC(=O)O)NC(=O)[C@H](CC(C)C)NC(=O)[C@H](CCC(N)=O)NC(=O)[C@H](CCC(=O)O)NC(=O)[C@H](CCC(N)=O)NC(=O)[C@H](CO)NC(=O)[C@H](CC(C)C)NC(C)=O)C(=O)N[C@@H]([C@@H](C)O)C(=O)N[C@@H](CC(C)C)C(=O)N[C@@H](CCCNC(=N)N)C(=O)N1)[C@@H](C)CC)C(=O)N[C@@H](CC(C)C)C(=O)N[C@@H](Cc1ccccc1)C(N)=O (stereo partly drawn) [SAH-BCL9B] (Ac-LSQEQLEHRERSL[ξαMeNle(6-ylidene)]TLR[ξαMeNle(6-ylidene)]IQR[Nle]LF-NH2; staple 14-18)?
dGFP expression [1]: dose-responsively blocked dGFP expression; shuIL-6R serum levels ([2]; 10 doses): low to undetectable levels; local angiogenesis (anti-CD34 staining, blood vessel quantitation) ([2]; 5 mg/kg local, 10 doses): suppressed; tumor burden within the bone chip ([2]; 5 mg/kg local, 10 doses, day 33): significantly reduced; TUNEL positivity in myeloma tumor tissue ([2]; bone chips bearing INA-6 cells): notably increased TUNEL positivity; tumor cell invasion outside the bone chip ([2]; day 33): resided within the confines of the bone chip

Which results are given for “SAH-BCL9B(R359E): SEQ ID NO: 7: LSQEQLEHEERSLXTLRXIQRBLF; reverse polarity point mutant, negative control of SAH-BCL9B”?
dGFP expression [1]: little to no effect; shuIL-6R serum levels ([2]; 10 doses): progressive increase in shuIL-6R levels; tumor cell invasion outside the bone chip ([2]; day 33): invasion into the surrounding soft tissue
